Patent US8889680B2, “Treatment or prevention of fungal infections with PDK1 inhibitors” (priority 2010, dated 2014)

How the values were obtained:
[1] = system: eisosomes in S. cerevisiae cells; experiment: Eisosome pattern by fluorescence microscopy (Pil1-GFP); type: cell-based; conditions: KP-372-1 (1/2 MIC), within one hour of treatment, versus DMSO
Method: Light and fluorescence microscopy was performed using a Nikon ES80 epi-fluorescence microscope equipped with a CoolSnap CCD camera. Images were collected using NIS-Elements Software and processed in PhotoShop. All images were collected with identical exposure settings and equally processed with respect to tone and contrast.
The micrographs of the KP-372-1-treated cells closely match those previously reported (Luo et al., J. Biol. Chem. 283:10433-44 (2008)) and, consequently, support a model in which Pil1 phosphorylation is required for eisosome assembly/stabilization.

[2] = system: Pkh1/2-dependent phosphorylation of Pil1-GFP; experiment: Pil1-GFP phosphorylation immunoblot; type: cell-based, S. cerevisiae; conditions: sub-inhibitory KP-372-1 (1/2 MIC); cells with endogenous Pkh1/2 and cells over-expressing Pkh2; Western blot
Method: Cells were harvested at the indicated times and analyzed by Pil1-GFP immunoblotting. Pil1-P corresponds to the Pkh1/2-dependent phosphorylated Pil1 species.
Western blot analysis of Pil1-GFP was performed essentially as described (Luo et al., J. Biol. Chem. 283:10433-44 (2008)). Briefly, Pil1-GFP containing cells were harvested and lysed using the SDS-PAGE sample buffer method. Extracts corresponding to equivalent numbers of cells were fractionated by SDS-PAGE electrophoresis on 7% gels, transferred to nitrocellulose and blocked overnight in 50 mM Tris pH 7.5/150 mM NaCl/0.05% (v/v) Tween-20+5% (w/v) non-fat skim milk. Pil1-GFP was detected using mouse anti-GFP (1:10,000 dilution, Clontech Living Colors) (Clontech; Mountain View, Calif.) as primary and goat anti-mouse antibodies conjugated with horse-radish peroxidase (1:10,000) followed by visualization with ECL-Plus reagents (Amersham; Piscataway, N.J.).
S. cerevisiae strains containing a chromosomally-integrated PIL1-GFP allele were transformed with a vector control or a plasmid expressing PKH2 under the control of a galactose-inducible promoter. […] The phosphorylation status of Pil1-GFP was followed over a 3.5 hour time course by Western blot.

[3] = system: C. albicans cells; experiment: Propidium iodide uptake; type: cell-based, Candida albicans; conditions: KP-372-1 at MIC, 2 hours
Method: Bars indicate mean fold change in Miller units of β-galactosidase activity relative to logarithmic phase cells without calcofluor or PKI. Error bars indicate standard deviation of three independent trials performed in triplicate. […] The percentage of cells with PI uptake was determined by fluorescence.
A hallmark phenotype of mutations and drugs that interfere with CWI signaling is that their effects can be suppressed by the addition of osmotic support such as 1M soribitol to the culture medium. By equalizing the osmotic gradient across the plasma membrane, cell integrity is less dependent upon an intact cell wall.

[4] = system: C. albicans clinical reference strain SC5314; experiment: Adenylate kinase (AK) release assay of yeast cell lysis; type: cell-based, Candida albicans; set-up: dose or concentration left out as unconfirmed; conditions: extracellular AK activity relative to DMSO-treated cells
Method: AK assays were performed according to a recently published protocol (Didone et al., Nat. Protocol. 5:1107-14 (2010)) using the 96-well plate version using the Toxi-Light Assay kit (Lonza; Basel, Switzerland). Luminescence was measured using a SpectraMax plate reader (Molecular Devices; Sunnyvale, Calif.). […] To identify PKIs that disrupt yeast cell wall integrity, a four-part screening strategy as outlined in FIG. 1A was designed. The primary screen in the approach detects molecules that cause yeast cells to lyse, a characteristic phenotype of yeast cell wall damage, by use of an assay that detects the release of adenylate kinase (AK) to the growth medium as a reporter of yeast cell lysis. […] Last, to select PKIs specific for the CWI signaling pathway, the set of hits were tested for their ability to block the activation of a transcriptional reporter of the CWI-signaling pathway. To rapidly survey a sample of well-characterized PKIs, the commercially available InhibitorSelect collection, a library of 80 PKIs with diverse mechanistic and structural characteristics, was utilized. C. albicans clinical reference strain SC5314 was screened against the InhibitorSelect library for molecules that caused a release of AK into the growth medium.

[5] = system: fluid-phase endocytosis in S. cerevisiae; experiment: Lucifer yellow (LY) endocytosis assay; type: cell-based; conditions: sub-lethal KP-372-1, 1 hour pre-treatment, 1 hour time course
Method: LY uptake assays were performed as described previously (Dulic et al., Methods Enzymol. 194:697-710 (1991)) using LY obtained from Sigma (St. Louis, Mo.). […] Cells were then exposed to LY and aliquots were removed at 15 minute intervals. Endocytosis was stopped by the addition of sodium azide/succinate and the percentage of cells with vacuolar LY staining was determined by fluorescence microscopy.
Pkh kinases are also important for endocytosis in yeast. […] LY binds to the plasma membrane and is transported to the vacuole (yeast lysosomal homolog) in PKH-dependent fashion.

[6] = system: C. glabrata; experiment: Antifungal susceptibility (microdilution MIC), C. glabrata; type: cell-based, Candida glabrata
Method: (§1) The antifungal activity of protein kinase inhibitors was determined using the Clinical and Laboratory Science Institute microdilution protocol M-27A2. Biofilm antifungal activity was determined using the protocol of Pierce et al. and is reported as MIC50S (Pierce et al., Nat. Protoc. 3:1494-1500 (2008)). Disk diffusion assays were performed as described previously (Roelants et al., Microbiology 150:3289-304 (2004)).
(§2) (FIG. 3A). […] Since the echinocandin class of cell wall-targeted 1,3-β-glucan synthase inhibitors is not active against C. neoformans, this represents one of the few cell wall-targeted molecules with activity against this important pathogen.

[7] = system: normal cells; conditions: cited from earlier work
[8] = system: C. albicans; experiment: Antifungal susceptibility (microdilution MIC), C. albicans; type: cell-based, Candida albicans
Method: as §1
To identify PKIs that disrupt yeast cell wall integrity, a four-part screening strategy as outlined in FIG. 1A was designed. The primary screen in the approach detects molecules that cause yeast cells to lyse, a characteristic phenotype of yeast cell wall damage, by use of an assay that detects the release of adenylate kinase (AK) to the growth medium as a reporter of yeast cell lysis. Previously it was shown that the AK assay in HTS format can detect as few as 500 lysed yeast cells in a sample of 10^5 cells (Didone et al., Nat. Protocol. 5:1107-14 (2010)). PKIs that cause yeast cells lysis (hits) were then re-confirmed by AK dose-response assays and tested for in vitro antifungal activity against the human fungal pathogen C. albicans using standard microdilution susceptibility testing. Last, to select PKIs specific for the CWI signaling pathway, the set of hits were tested for their ability to block the activation of a transcriptional reporter of the CWI-signaling pathway. […]

[9] = system: C. neoformans; experiment: Antifungal susceptibility (microdilution MIC), C. neoformans; type: cell-based, Cryptococcus neoformans
Method: as §1, §2

[10] = system: C. neoformans PKH2-01 and PKH2-02 deletion mutants; experiment: Disk diffusion assay, C. neoformans mutants; type: cell-based, Cryptococcus neoformans; conditions: 30° C.
Method: Plates were incubated at 30° C. for 3 days prior to photography.
as §1

[11] = system: human protein kinases; conditions: large panel of human protein kinases; cited from earlier work
[12] = system: leukemic and glioblastoma cells; conditions: cited from earlier work
[13] = system: Candida spp.; experiment: Antifungal susceptibility (microdilution MIC), Candida spp.; type: cell-based
Method: as §1, §2

[14] = system: C. albicans; experiment: Checkerboard interaction assay (FIC); type: cell-based, Candida albicans
Method: This assay allows one to compare the activity of a molecule alone and in combination with another molecule by generating a fractional inhibitory concentration (FIC). FIC for two drugs (A & B) is calculated as follows: […]. FIC values less than 0.5 are considered synergistic; between 0.5 and 1 are additive; between 1-2 are indifferent; and above 2 are antagonistic. […] Therefore, KP-372-1 is not synergistic with either agent.

O=C1c2ccccc2-c2nc3nnnn3nc21.O=C1c2ccccc2-c2nn3nnnc3nc21 [KP-372-1]
number of peripheral eisosomes [1]: dramatically decreased
phosphorylation of Pil1-GFP [2]: rapidly blocked
cells stained by propidium iodide relative to YPD ([3]; 1M sorbitol-supplemented YPD): five-fold fewer cells were stained
percentage of cells stained by propidium iodide ([3]; 37° C., YPD): 36%
Fold increase in AK release [4]: 4 Fold
Lucifer yellow uptake (vacuolar localization) [5]: uptake is inhibited at early time points
antifungal activity (in words) [6]: highly active
cytotoxicity toward normal cells [7]: without significant cytotoxicity
antifungal activity (in words) ([8]; C. albicans): highly active
MIC ([8]; C. albicans growth assay, Table 1): 3 µg/mL
antifungal activity (in words) [9]: highly active
sensitivity versus wild type ([10]; C. neoformans PKH2-01 mutant): slightly more sensitive
sensitivity versus wild type ([10]; C. neoformans PKH2-02 mutant): significantly more sensitive
selectivity for a limited number of human kinases [11]: at least 10 fold
activity against leukemic and glioblastoma cells [12]: potent activity
MIC ([13]; Candida spp., FIG. 7 legend): 3 to 25 µg/mL
antifungal activity (in words) ([13]; other Candida spp. compared with C. albicans and C. glabrata): less so
FIC (fractional inhibitory concentration) ([14]; combination with caspofungin): 0.5
FIC (fractional inhibitory concentration) ([14]; combination with fluconazole): 1.0
